Earlier results as cited in patent US20070161566A1, “Method of treating multiple sclerosis” (Teva Pharmaceutical Industries, Ltd., priority 2006, published 2007).

Experiments:
[1] = system: chronic progressive MS patients; details: 15 mg twice per day (30 mg per day); up to 24 months
MS patients = details: 20 mg/day subcutaneous dose

Substance: L-glutamic acid polymer with L-alanine, L-lysine, L-tyrosine, acetate (salt) [GA]
- arrest or reversal of disease progress vs placebo [1]: did not produce statistically significant difference
- total number of enhancing lesions as measured by MRI (MS patients): reduce the total number of enhancing lesions
